Measured values from patent US20240239759A1, “ISOXAZOLINE COMPOSITIONS AND THEIR USE AS ANTIPARASITICS” (Intervet Inc., priority 2007, published 2024).

Experiments:
[1] = tested on: cat fleas (C. felis); assay: Efficacy against cat fleas on dogs (Example 5); type: in vivo, Ctenocephalides felis; conditions: beagles, Day 2 (approx. 48 hr after treatment)
Description: On Day Zero, one group of 4 beagles was treated orally with gelatin capsules containing 20 mg/kg body weight of […]. Another group of 4 beagles was treated topically by washing with 2 L of solution containing 200 ppm body weight of […] dissolved in DMF-premix/tap water (1:100, based on volume). Finally, a group of 3 beagles remained untreated as the negative control. Two days before treatment on Day Zero, all the beagles were each infested with approximately 80 unfed adult fleas (C. felis) and approximately 60 unfed adult ticks (R. sanguineus). The parasite burden of each beagle was assessed on Day 2 (approximately 48 hr after the treatment) by removing and counting the fleas and ticks. Fleas and ticks were classified according to vitality (fleas: dead or alive; ticks: dead or alive, and engorged or not engorged). The efficacy was calculated from the mean number of vital fleas and ticks in the treated group (Mt) relative to the mean number of vital fleas and ticks in the untreated control group (Mc) using following formula: […]

[2] = tested on: cat fleas (C. felis); assay: Further efficacy study against cat fleas on beagles (Example 6); type: in vivo, Ctenocephalides felis
Description: Beagles were randomly assigned to 5 treatment groups of 4 animals each, and one untreated control group of 3 animals.
The dogs were infested with approximately 80 fleas (C. felis) and 60 ticks (R. sanguineus) on Days −2, 7, 14, 21, 28, 35, 42, and 49. Fleas and ticks were counted on Day 2 (approximately 48 h after treatment), as well as Days 9, 16, 23, 30, 37, 44, and 51 (approximately 48 hr after each post-treatment re-infestation) to evaluate the insecticidal and acaricidal activity in the treated groups. In Group B, an additional flea and tick infestation was conducted on Day 56, with a respective flea and tick count on Day 58. In addition to the flea and tick counts, blood samples were collected before the treatments, as well as approximately 2 hr, 4 hr, 8 hr, 24 hr, and 72 hr after the treatment on Day Zero, and then once on each of Days 7, 14, 21, 28, 35, 42, 49, and 56. The concentration of Compound 11-1 in blood plasma was analyzed by HPLC/MS/MS. The LOQ of this method was 5 ng/ml.

**Q.** For `Cc1cc(C2=NOC(c3cc(Cl)cc(Cl)c3)(C(F)(F)F)C2)ccc1C(=O)NCC(=O)NCC(F)(F)F` (racemic) [Compound 11-1, 4-[5-(3,5-dichlorophenyl)-5-trifluoromethyl-4,5-dihydroisoxazol-3-yl]-2-methyl-N-[(2,2,2-trifluoro-ethylcarbamoyl)-methyl]-benzamide], which Flea efficacy ([1]; oral gelatin capsules 20 mg/kg) is on record?
**A.** 100%

**Q.** What about the Flea efficacy ([1]; topical washing with 2 L of 200 ppm solution) of the same compound?
**A.** 100%

**Q.** What about the “Efficacy against cat fleas” value ([2]; Group A: 1 mg/kg oral tablet, Day 2) of the same compound?
**A.** 100

**Q.** What about the “Efficacy against cat fleas” value ([2]; Group A: 1 mg/kg oral tablet, Day 9) of the same compound?
**A.** 100

**Q.** What about the “Efficacy against cat fleas” value ([2]; Group A: 1 mg/kg oral tablet, Day 16) of the same compound?
**A.** 100

**Q.** And the “Efficacy against cat fleas” value ([2]; Group A: 1 mg/kg oral tablet, Day 23)?
**A.** 100

**Q.** What about the “Efficacy against cat fleas” value ([2]; Group A: 1 mg/kg oral tablet, Day 30) of the same compound?
**A.** 100

**Q.** And the “Efficacy against cat fleas” value ([2]; Group A: 1 mg/kg oral tablet, Day 37)?
**A.** 99.6

**Q.** And the “Efficacy against cat fleas” value ([2]; Group A: 1 mg/kg oral tablet, Day 44)?
**A.** 100

**Q.** What about the “Efficacy against cat fleas” value ([2]; Group A: 1 mg/kg oral tablet, Day 51) of the same compound?
**A.** 100

**Q.** And the “Efficacy against cat fleas” value ([2]; Group B: 1 mg/kg subcutaneous injectable solution, Day 2)?
**A.** 100

**Q.** And the “Efficacy against cat fleas” value ([2]; Group B: 1 mg/kg subcutaneous injectable solution, Day 9)?
**A.** 100

**Q.** What about the “Efficacy against cat fleas” value ([2]; Group B: 1 mg/kg subcutaneous injectable solution, Day 16) of the same compound?
**A.** 100

**Q.** And the “Efficacy against cat fleas” value ([2]; Group B: 1 mg/kg subcutaneous injectable solution, Day 23)?
**A.** 100

**Q.** And the “Efficacy against cat fleas” value ([2]; Group B: 1 mg/kg subcutaneous injectable solution, Day 30)?
**A.** 99.6

**Q.** And the “Efficacy against cat fleas” value ([2]; Group B: 1 mg/kg subcutaneous injectable solution, Day 37)?
**A.** 100

**Q.** What about the “Efficacy against cat fleas” value ([2]; Group B: 1 mg/kg subcutaneous injectable solution, Day 44) of the same compound?
**A.** 100

**Q.** And the “Efficacy against cat fleas” value ([2]; Group B: 1 mg/kg subcutaneous injectable solution, Day 51)?
**A.** 100

**Q.** And the “Efficacy against cat fleas” value ([2]; Group B: 1 mg/kg subcutaneous injectable solution, Day 58)?
**A.** 99.7

**Q.** What about the “Efficacy against cat fleas” value ([2]; Group C: 1 mg/kg topical spot-on with absorption enhancer, Day 2) of the same compound?
**A.** 100

**Q.** And the “Efficacy against cat fleas” value ([2]; Group C: 1 mg/kg topical spot-on with absorption enhancer, Day 9)?
**A.** 100

**Q.** And the “Efficacy against cat fleas” value ([2]; Group C: 1 mg/kg topical spot-on with absorption enhancer, Day 16)?
**A.** 100

**Q.** What about the “Efficacy against cat fleas” value ([2]; Group C: 1 mg/kg topical spot-on with absorption enhancer, Day 23) of the same compound?
**A.** 100

**Q.** What about the “Efficacy against cat fleas” value ([2]; Group C: 1 mg/kg topical spot-on with absorption enhancer, Day 30) of the same compound?
**A.** 100

**Q.** What about the “Efficacy against cat fleas” value ([2]; Group C: 1 mg/kg topical spot-on with absorption enhancer, Day 37) of the same compound?
**A.** 100

**Q.** And the “Efficacy against cat fleas” value ([2]; Group C: 1 mg/kg topical spot-on with absorption enhancer, Day 44)?
**A.** 100

**Q.** What about the “Efficacy against cat fleas” value ([2]; Group C: 1 mg/kg topical spot-on with absorption enhancer, Day 51) of the same compound?
**A.** 100

**Q.** And the “Efficacy against cat fleas” value ([2]; Group D: 1 mg/kg topical spot-on with absorption enhancer and spreading agent, Day 2)?
**A.** 100

**Q.** What about the “Efficacy against cat fleas” value ([2]; Group D: 1 mg/kg topical spot-on with absorption enhancer and spreading agent, Day 9) of the same compound?
**A.** 100

**Q.** And the “Efficacy against cat fleas” value ([2]; Group D: 1 mg/kg topical spot-on with absorption enhancer and spreading agent, Day 16)?
**A.** 100

**Q.** What about the “Efficacy against cat fleas” value ([2]; Group D: 1 mg/kg topical spot-on with absorption enhancer and spreading agent, Day 23) of the same compound?
**A.** 100

**Q.** What about the “Efficacy against cat fleas” value ([2]; Group D: 1 mg/kg topical spot-on with absorption enhancer and spreading agent, Day 30) of the same compound?
**A.** 100

**Q.** And the “Efficacy against cat fleas” value ([2]; Group D: 1 mg/kg topical spot-on with absorption enhancer and spreading agent, Day 37)?
**A.** 100

**Q.** What about the “Efficacy against cat fleas” value ([2]; Group D: 1 mg/kg topical spot-on with absorption enhancer and spreading agent, Day 44) of the same compound?
**A.** 100

**Q.** And the “Efficacy against cat fleas” value ([2]; Group D: 1 mg/kg topical spot-on with absorption enhancer and spreading agent, Day 51)?
**A.** 100

**Q.** What about the “Efficacy against cat fleas” value ([2]; Group E: 1 mg/kg topical spot-on in ethyl lactate, Day 2) of the same compound?
**A.** 100

**Q.** And the “Efficacy against cat fleas” value ([2]; Group E: 1 mg/kg topical spot-on in ethyl lactate, Day 9)?
**A.** 100

**Q.** And the “Efficacy against cat fleas” value ([2]; Group E: 1 mg/kg topical spot-on in ethyl lactate, Day 16)?
**A.** 100

**Q.** What about the “Efficacy against cat fleas” value ([2]; Group E: 1 mg/kg topical spot-on in ethyl lactate, Day 23) of the same compound?
**A.** 100

**Q.** And the “Efficacy against cat fleas” value ([2]; Group E: 1 mg/kg topical spot-on in ethyl lactate, Day 30)?
**A.** 100

**Q.** And the “Efficacy against cat fleas” value ([2]; Group E: 1 mg/kg topical spot-on in ethyl lactate, Day 37)?
**A.** 100

**Q.** And the “Efficacy against cat fleas” value ([2]; Group E: 1 mg/kg topical spot-on in ethyl lactate, Day 44)?
**A.** 100

**Q.** And the “Efficacy against cat fleas” value ([2]; Group E: 1 mg/kg topical spot-on in ethyl lactate, Day 51)?
**A.** 100
